This note sets out measurements from article PMC9030166, “Natural Phaeosphaeride A Derivatives Overcome Drug Resistance of Tumor Cells and Modulate Signaling Pathways” (Pharmaceuticals, 2022).

In one experiment the test system is A549. Briefly: MTT cytotoxicity, A549 non-small cell lung cancer cells. The format is cell-based, human. Particulars: 48 h; for IC50: Homo sapiens, A549, adhesive tumor culture. The source says: (§1) Cell cultures used in the work: adhesive cultures HBL-100 cells (cells of a normal mammary gland epithelium, immortalized by the SV40 virus and acquired tumorigenicity); MCF-7 breast cancer cells; PC-3 prostate adenocarcinoma cells; HCT-116 colorectal cancer cells; non-small cell lung cancer cells A549; human embryonic kidney cells HEK293; suspension cultures (NCI-H929 and RPMI8226 multiple myeloma cells), K562 chronic myeloid leukemia cells; THP-1 acute monocytic leukemia cells; and Jurkat acute T-cell leukemia cells. We also used several primary cultures of soft tissue sarcomas at 3–4passeges, kindly provided by T.I. Fetisov (The Ethics Committee of N.N. Blokhin NMRCO, protocol code 18-28-09095 and date of approval 28 September 2018).
(§2) Modifications of cell lines: K562/i-S9 is a clone obtained after transfection of K562 cells with the ABCB1 (MDR1) gene-encoding P-glycoprotein [36]. Cells HBL-100/Dox and K562/i-S9_Dox are cells obtained by long-term selection with increasing concentrations of doxorubicin (Sigma-Aldrich, St. Louis, MO, USA) from HBL-100 and K562/i-S9 cells, respectively. MCF-7, A594 cells, and primary cultures of soft tissue sarcomas were cultured in DMEM medium (PanEko, Russia), PC-3 and HCT-116 cells and all suspension cultures in RPMI1640 medium (PanEko, Russia) supplemented with 10% fetal bovine serum (GE Healthcare LifeSciences, USA), and gentamicin at a concentration of 40 μg/mL at 37 °C and 5% CO2.
(§3) Cells MCF-7, PC-3, A549, and HCT-116, and primary cultures of STSwere seeded in 96-well plates, 6 × 10^3 cells per well in 90 μL of culture medium. Suspension cultures were seeded at a concentration of 25 × 10^3 cells per well in 135 μL of medium. The test substances were dissolved in DMSO (Applichem, Council Bluffs, IA, USA) until a concentration of 1 × 10^−^2 M was obtained; for the subsequent dilution of the substances, a serum-free culture medium was used. The next day, for adhesive cultures, and on the same day, for suspension cultures, substances were added to the plates in a volume of 10 μL (adhesive cultures) and 15 μL (suspension cultures) per well at various concentrations; each concentration was added in 3–4 repetitions. The cells were cultured in the presence of substances for 48 h. Then, MTT reagent (PanEko, Moscow, Russia) was added to the wells at a concentration of 5 mg/mL in a volume of 20 μL per well. After 1.5–2 h, the medium with the reagent was removed, and the precipitate of the crystals of formazan was dissolved in 60 μL of DMSO. The optical density was determined using a Multiskan FC spectrophotometer (Thermo Scientific, Waltham, MA, USA) at a wavelength of 540 nm.
(§4) Based on the results of the experiments, a schedule was plotted of the dependence of the percentage of surviving cells (from control) on the concentration of the compound, and the sought concentration IC50 was calculated. The experiments were carried out in 3–4 times.

The test system of the next experiment is p70S6K (pThr389/412). Briefly: MILLIPLEX MAP 9-Plex, p70S6K active form in A431 lysates. The experiment is classed as cell-based, human. As to conditions: A431 cell lysates, 10 μM, 1 h, M ± mx; control 39.9 ± 7.2. The source says: (§5) We used the MILLIPLEX MAP Multi-Pathway Magnetic Bead 9-Plex-Cell Signaling Multiplex Assay, which allows the simultaneous detection of nine phosphorylated proteins that are markers of the main intracellular signaling pathways (phosphorylation site is indicated in parentheses), a universal transcription factor that controls the expression of immune response genes; apoptosis and cell cycle NFκB (pS536); cAMP-dependent transcription factor (CREB (pS133); mitogen-activated kinase p38 (pT180/pY182); stress-activated protein kinase JNK (pT183/pY185); ribosomal […]; transcription factors STAT3 (pS727) and STAT5A/B (pY694/699); protein kinase B (Akt) (pS473); and kinase regulated by extracellular signals ERK1/2 (pT185/pY187).
(§6) The effect of various concentrations of PPA derivatives on the cell culture was studied using xCelligence RTCA equipment (AceaBioscience, San Diego, CA, USA). The concentration closest to the IC50 (10 μM) was chosen as the experimental concentration. The selected concentration of phaeosphaeride A derivatives allows for the assessment of the early effect of compounds on cells and compares their effectiveness. In this experiment, the signaling pathways Akt (pSer473), p70S6K (pThr412), NFkB (p65-pSer536), and CREB (pSer133) were not activated (Table 8). The stress-activated signaling pathways ERK/MAP kinase 1/2 (pThr185/pTyr187), JNK (pThr183/pTyr185), and p38 (pThr180/pTyr182) were activated for these compounds.
(§7) We used a MILLIPLEX MAP Multi-Pathway Magnetic Bead 9-Plex-Cell Signaling Multiplex Assay kit (Merck/Millipore), according to the manufacturer’s protocol. A431 cells were cultured in DMEM with 10% FBS in 24-well plates. Compounds were added to the subconfluent cells at a concentration of 10 μM in DMEM medium for 1 h. Each compound was added in 5 experimental repeats. Cell lysates were prepared with lysis buffer (Millipore) with protease inhibitors (Complete, Roche); the protein concentration in the lysates was determined by the Lowry method. In samples equalized in protein concentration, the active forms of kinase cascades were determined using a Bio-Plex 200 fluorescent analyzer (Bio-Rad).

Another experiment deals with HEK293. Kind of experiment: MTT cytotoxicity, human embryonic kidney cells HEK293. The experiment is classed as cell-based. Particulars: 48 h.
From the text: as §1, §3, §4

Another experiment deals with STAT3 (pSer727). Kind of experiment: MILLIPLEX MAP 9-Plex, STAT3 active form in A431 lysates. The format is cell-based, human. As to conditions: 10 μM; for STAT3 (pSer727) fluorescence intensity: A431 cell lysates, 1 h, M ± mx, control 70.7 ± 18.3.
From the text: as §5, §6, §7

Experiment [1] concerns CMT № 2 (Malignant Schwannoma). Kind of experiment: MTT cytotoxicity, primary culture of soft tissue sarcoma CMT № 2. The format is cell-based. As to conditions: Homo sapiens, 48 h.
From the text: It is believed that such cultures have a molecular profile that corresponds more with cells from the human body, in comparison with that of stable cultures of tumor cells (Table 3).
as §1, §2
as §3, with “Then, MTT reagent (PanEko, Moscow, Russia) was added to the wells at a concentration of 5 mg/mL in a volume of 20 μL per well. After 1.5–2 h, the medium with the reagent was removed, and the precipitate of the crystals of formazan was dissolved in 60 μL of DMSO.” left out
Based on the results of the experiments, a schedule was plotted of the dependence of the percentage of surviving cells (from control) on the concentration of the compound, and the sought concentration IC50 was calculated. […]

In the case of `C=C1C2=C(C(=O)N1OC)[C@@H](N1CCCC1)[C@@](C)(O)[C@H](CCCCC)O2` [Compound 1], the half-maximal inhibitory concentration (IC50) – broadly, the midpoint of a concentration-inhibition curve – worked out at 14 ± 0.1 µM in the experiment on A549, 5.1 ± 0.7 µM in the experiment on HEK293 and 2500 ± 900 nM in experiment [1]. For the same molecule, the “p70S6K (pThr389/412) fluorescence intensity” value in the experiment on p70S6K (pThr389/412) is 51.7 ± 4.8 rel. units. The “STAT3 (pSer727) fluorescence intensity” value in the experiment with STAT3 (pSer727) is 163.0 ± 20.7 *↑ rel. units.

`C=C1C2=C(C(=O)N1OC)[C@@H](N(C)C)[C@@](C)(O)[C@H](CCCCC)O2` [Compound 2, (2S,3R,4R)-4-(dimethylamino)-3-hydroxy-6-methoxy-3-methyl-7-methylene-2-pentyl-3,4,6,7-tetrahydropyrano[2,3-c]pyrrol-5(2H)-one]: the figures for the IC50 (in the experiment with A549; with HEK293; in experiment [1]) were 9.6 ± 2.1 µM, 4.2 ± 0.3 µM and 1900 ± 500 nM, respectively. In addition, the “p70S6K (pThr389/412) fluorescence intensity” value in the experiment with p70S6K (pThr389/412) came to 56.9 ± 9.9 rel. units. In the experiment with STAT3 (pSer727), the “STAT3 (pSer727) fluorescence intensity” value was 272.3 ± 50.5 *↑ rel. units. The “activation of transcription factor STAT3 (pSer727), in words” value in the experiment on STAT3 (pSer727) (A431 cells) is given as “slightly activated”.

Turning to `C=C1C2=C(C(=O)N1OC)[C@@H](N(CCCC)CCCC)[C@@](C)(O)[C@H](CCCCC)O2` [Compound 5, (2S,3R,4R)-4-(dibutylamino)-3-hydroxy-6-methoxy-3-methyl-7-methylene-2-pentyl-3,4,6,7-tetrahydropyrano[2,3-c]pyrrol-5(2H)-one], the IC50 is 23.4 ± 2.3 µM with A549 and 8.2 ± 0.9 µM in the experiment on HEK293. Moreover, the “p70S6K (pThr389/412) fluorescence intensity” value in the experiment on p70S6K (pThr389/412) is 70.6 ± 9.2 *↑ rel. units. Besides, in the experiment on STAT3 (pSer727), the “STAT3 (pSer727) fluorescence intensity” value is on record as 123.4 ± 8.3 *↑ rel. units.

Turning to `C=C1C2=C(C(=O)N1OC)[C@@H](N(CC)CCO)[C@@](C)(O)[C@H](CCCCC)O2` [Compound 9, (2S,3R,4R)-4-[ethyl(2-hydroxyethyl)amino]-3-hydroxy-6-methoxy-3-methyl-7-methylene-2-pentyl-3,4,6,7-tetrahydropyrano[2,3-c]pyrrol-5(2H)-one], the results for the concentration for half-maximal inhibition (IC50) (in the experiment with A549; in the experiment on HEK293; in experiment [1]) were 8.9 ± 0.2 µM, 3.8 ± 0.4 µM and 4100 ± 1100 nM, respectively. Also, the “p70S6K (pThr389/412) fluorescence intensity” value with p70S6K (pThr389/412) worked out at 38.8 ± 7.4 rel. units. Besides, the “STAT3 (pSer727) fluorescence intensity” value in the experiment with STAT3 (pSer727) was determined as 151.5 ± 28.7 rel. units.

On to `CCCCC[C@@H]1OC2=C(C(=O)N(OC)/C2=C\n2cnnc2)C(n2cnnc2)[C@@]1(C)O` (stereo partly drawn) [Compound 10], for which the “IC50 value, A549” value with A549 (adhesive tumor culture) is on record as “not active”. For the same molecule, the “p70S6K (pThr389/412) fluorescence intensity” value in the experiment on p70S6K (pThr389/412) is reported as 53.4 ± 4.0 rel. units. This molecule registered a half-maximal inhibitory concentration (IC50) in the experiment with HEK293 of 41 ± 2.1 µM. Besides, in the experiment on STAT3 (pSer727), the “STAT3 (pSer727) fluorescence intensity” value is 178.9 ± 13.4 *↑ rel. units.
